Laboratory results taken from ChEMBL document CHEMBL1132434, “Antitumor benzothiazoles. 8. Synthesis, metabolic formation, and biological properties of the C- and N-oxidation products of antitumor 2-(4-aminophenyl)benzothiazoles” (J Med Chem, 1999).
Blank lines part the entries; values can stand above or below the molecule they belong to.

Tests used:
MCF7 [1] = assay: In vitro cytotoxicity against MCF-7 human mammary carcinoma cells; type: functional, cell-based
T47D = assay: Growth inhibition of the T-47D Breast cancer cell line for 2-day in vitro assay.; type: functional; conditions: Homo sapiens, 48 h
OVCAR-4 = assay: Growth inhibition of the OVCAR-4 Ovarian cancer cell line for 2-day in vitro assay.; type: functional; conditions: Homo sapiens, OVCAR-4, 48 h
SF-268 = assay: Growth inhibition of the SF-268 CNS cancer cell line for 2-day in vitro assay.; type: functional; conditions: Homo sapiens, SF-268, 48 h
HT-29 = assay: Growth inhibition of the HT-29 colon cancer cell line for 2-day in vitro assay.; type: functional; conditions: Homo sapiens, HT-29, 48 h
UACC-257 = assay: Growth inhibition of the UACC-257 Melanoma cancer cell line for 2-day in vitro assay.; type: functional; conditions: Homo sapiens, UACC-257, 48 h
PC-3 = assay: Growth inhibition of the PC-3 Prostate cancer cell line for 2-day in vitro assay.; type: functional; conditions: Homo sapiens, PC-3, 48 h
NCI-H23 = assay: Growth inhibition of the NCI-H23 non-small cell lung cancer cell line for 2-day in vitro assay.; type: functional; conditions: Homo sapiens, NCI-H23, 48 h
SW-620 = assay: Growth inhibition of the SW-620 colon cancer cell line for 2-day in vitro assay.; type: functional; conditions: Homo sapiens, SW-620, 48 h
Malme-3M = assay: Growth inhibition of the MALME-3M Melanoma cancer cell line for 2-day in vitro assay.; type: functional; conditions: Homo sapiens, 48 h
SNB-19 = assay: Growth inhibition of the SNB19 CNS cancer cell line for 2-day in vitro assay.; type: functional; conditions: Homo sapiens, SNB-19, 48 h
Hs-578T = assay: Growth inhibition of the Hs 578.T Breast cancer cell line for 2-day in vitro assay.; type: functional; conditions: Homo sapiens, 48 h
EKVX = assay: Growth inhibition of the EKVX non-small cell lung cancer cell line for 2-day in vitro assay.; type: functional; conditions: Homo sapiens, 48 h
HOP-92 = assay: Growth inhibition of the HOP-92 non-small cell lung cancer cell line for 2-day in vitro assay.; type: functional; conditions: Homo sapiens, HOP-92, 48 h
SR = assay: Growth inhibition of the SR leukemia cell line for 2-day in vitro assay.; type: functional; conditions: Homo sapiens, 48 h
MOLT-4 = assay: Growth inhibition of the MOLT-4 leukemia cell line for 2-day in vitro assay.; type: functional; conditions: Homo sapiens, MOLT-4, 48 h
HCT-116 = assay: Growth inhibition of the HCT116 colon cancer cell line for 2-day in vitro assay.; type: functional; conditions: Homo sapiens, HCT-116, 48 h
MDA-MB-435 = assay: Growth inhibition of the […] Breast cancer cell line for 2-day in vitro assay.; type: functional; conditions: Homo sapiens, MDA-MB-435, 48 h
A498 = assay: Growth inhibition of the A498 Renal cancer cell line for 2-day in vitro assay.; type: functional; conditions: Homo sapiens, A498, 48 h
HOP-62 = assay: Growth inhibition of the HOP-62 non-small cell lung cancer cell line for 2-day in vitro assay.; type: functional; conditions: Homo sapiens, HOP-62, 48 h
LOX IMVI = assay: Growth inhibition of the LOX IMVI Melanoma cancer cell line for 2-day in vitro assay.; type: functional; conditions: Homo sapiens, 48 h
TK-10 = assay: Growth inhibition of the TK-10 Renal cancer cell line for 2-day in vitro assay.; type: functional; conditions: Homo sapiens, TK-10, 48 h
HCT-15 = assay: Growth inhibition of the HCT-15 colon cancer cell line for 2-day in vitro assay.; type: functional; conditions: Homo sapiens, HCT-15, 48 h
SK-MEL-28 = assay: Growth inhibition of the SK-MEL-28 Melanoma cancer cell line for 2-day in vitro assay.; type: functional; conditions: Homo sapiens, SK-MEL-28, 48 h
NCI/ADR-RES = assay: Growth inhibition of the NCI/ADR-RES Breast cancer cell line for 2-day in vitro assay.; type: functional; conditions: Homo sapiens, 48 h
CCRF-CEM = assay: Growth inhibition of the CCRF-CEM leukemia cell line for 2-day in vitro assay.; type: functional; conditions: Homo sapiens, 48 h
UACC-62 = assay: Growth inhibition of the UACC-62 Melanoma cancer cell line for 2-day in vitro assay.; type: functional; conditions: Homo sapiens, UACC-62, 48 h
NCI-H460 = assay: Growth inhibition of the NCI-H460 non-small cell lung cancer cell line for 2-day in vitro assay.; type: functional; conditions: Homo sapiens, NCI-H460, 48 h
A549 = assay: Growth inhibition of the A549/ATCC non-small cell lung cancer cell line for 2-day in vitro assay.; type: functional; conditions: Homo sapiens, A549, 48 h
SK-OV-3 = assay: Growth inhibition of the SK-OV-3 Ovarian cancer cell line for 2-day in vitro assay.; type: functional; conditions: Homo sapiens, SK-OV-3, 48 h
SK-MEL-5 = assay: Growth inhibition of the SK-MEL-5 Melanoma cancer cell line for 2-day in vitro assay.; type: functional; conditions: Homo sapiens, SK-MEL-5, 48 h
M14 = assay: Growth inhibition of the M14 Melanoma cancer cell line for 2-day in vitro assay.; type: functional; conditions: Homo sapiens, M14, 48 h
UO-31 = assay: Growth inhibition of the UO-31 Renal cancer cell line for 2-day in vitro assay.; type: functional; conditions: Homo sapiens, UO-31, 48 h
HCC 2998 = assay: Growth inhibition of the HCC2998 colon cancer cell line for 2-day in vitro assay.; type: functional; conditions: Homo sapiens, HCC 2998, 48 h
OVCAR-8 = assay: Growth inhibition of the OVCAR-8 Ovarian cancer cell line for 2-day in vitro assay.; type: functional; conditions: Homo sapiens, OVCAR-8, 48 h
SNB-75 = assay: Growth inhibition of the SNB-75 CNS cancer cell line for 2-day in vitro assay.; type: functional; conditions: Homo sapiens, SNB-75, 48 h
K562 = assay: Growth inhibition of the K-562 leukemia cell line for 2-day in vitro assay.; type: functional; conditions: Homo sapiens, K562, 48 h
RXF 393 = assay: Growth inhibition of the RXF-393 Renal cancer cell line for 2-day in vitro assay.; type: functional; conditions: Homo sapiens, RXF 393, 48 h
NCI-H522 = assay: Growth inhibition of the NCI-H522 non-small cell lung cancer cell line for 2-day in vitro assay.; type: functional; conditions: Homo sapiens, NCI-H522, 48 h
OVCAR-3 = assay: Growth inhibition of the OVCAR-3 Ovarian cancer cell line for 2-day in vitro assay.; type: functional; conditions: Homo sapiens, OVCAR-3, 48 h
SF-295 = assay: Growth inhibition of the SF-295 CNS cancer cell line for 2-day in vitro assay.; type: functional; conditions: Homo sapiens, SF-295, 48 h
BT-549 = assay: Growth inhibition of the BT-549 Breast cancer cell line for 2-day in vitro assay.; type: functional; conditions: Homo sapiens, BT-549, 48 h
MDA-MB-231 = assay: Growth inhibition of the […] Breast cancer cell line for 2-day in vitro assay.; type: functional; conditions: Homo sapiens, MDA-MB-231, 48 h
SK-MEL-2 = assay: Growth inhibition of the SK-MEL-2 Melanoma cancer cell line for 2-day in vitro assay.; type: functional; conditions: Homo sapiens, SK-MEL-2, 48 h
KM12 = assay: Growth inhibition of the KM12 colon cancer cell line for 2-day in vitro assay.; type: functional; conditions: Homo sapiens, KM12, 48 h
COLO 205 = assay: Growth inhibition of the COLO-205 colon cancer cell line for 2-day in vitro assay.; type: functional; conditions: Homo sapiens, COLO 205, 48 h
OVCAR-5 = assay: Growth inhibition of the OVCAR-5 Ovarian cancer cell line for 2-day in vitro assay.; type: functional; conditions: Homo sapiens, OVCAR-5, 48 h
786-0 = assay: Growth inhibition of the 786-O Renal cancer cell line for 2-day in vitro assay.; type: functional; conditions: Homo sapiens, 786-0, 48 h
U-251 = assay: Growth inhibition of the U251 CNS cancer cell line for 2-day in vitro assay.; type: functional; conditions: Homo sapiens, U-251, 48 h
DU-145 = assay: Growth inhibition of the DU-145 Prostate cancer cell line for 2-day in vitro assay.; type: functional; conditions: Homo sapiens, DU-145, 48 h
SN12C = assay: Growth inhibition of the SN12C Renal cancer cell line for 2-day in vitro assay.; type: functional; conditions: Homo sapiens, 48 h
NCI-H226 = assay: Growth inhibition of the NCI-H226 non-small cell lung cancer cell line for 2-day in vitro assay.; type: functional; conditions: Homo sapiens, NCI-H226, 48 h
NCI-H322M = assay: Growth inhibition of the NCI-H322M non-small cell lung cancer cell line for 2-day in vitro assay.; type: functional; conditions: Homo sapiens, 48 h
MCF7 [2] = assay: Growth inhibition of the MCF-7 Breast cancer cell line for 2-day in vitro assay.; type: functional; conditions: Homo sapiens, MCF7, 48 h
ACHN = assay: Growth inhibition of the ACHN Renal cancer cell line for 2-day in vitro assay.; type: functional; conditions: Homo sapiens, 48 h

Structure (SMILES): Nc1ccc(-c2nc3ccc(O)cc3s2)cc1
IC50 (MCF7 [1]): 21.6 µM

Structure (SMILES): CC(=O)Nc1ccc(-c2nc3c(O)cccc3s2)cc1Cl
IC50 (MCF7 [1]): 56.8 µM

Structure (SMILES): CC(=O)Nc1ccc(-c2nc3cc(O)ccc3s2)cc1Cl
IC50 (MCF7 [1]): 31 µM

GI50 (T47D): 22.4 µM
GI50 (OVCAR-4): 37.2 µM
GI50 (HT-29): 37.2 µM
GI50 (PC-3): 50.1 µM
GI50 (NCI-H23): 12.6 µM
GI50 (SW-620): 66.1 µM
GI50 (MOLT-4): 26.9 µM
GI50 (HCT-116): 43.7 µM
GI50 (MDA-MB-435): 89.1 µM
GI50 (HCT-15): > 100 µM
GI50 (SK-MEL-28): 64.6 µM
GI50 (CCRF-CEM): 0.794 µM
GI50 (NCI-H460): 38.9 µM
GI50 (A549): 34.7 µM
GI50 (SK-OV-3): 37.2 µM
GI50 (SK-MEL-5): 52.5 µM
GI50 (HCC 2998): > 100 µM
GI50 (OVCAR-8): > 100 µM
GI50 (K562): 36.3 µM
GI50 (NCI-H522): 30.2 µM
GI50 (OVCAR-3): 38.9 µM
GI50 (BT-549): 14.1 µM
GI50 (MDA-MB-231): 44.7 µM
GI50 (SK-MEL-2): > 100 µM
GI50 (COLO 205): > 100 µM
GI50 (OVCAR-5): 83.2 µM
GI50 (786-0): 29.5 µM
GI50 (U-251): 31.6 µM
GI50 (DU-145): 33.9 µM
GI50 (NCI-H226): 60.3 µM
GI50 (NCI-H322M): 39.8 µM
GI50 (MCF7 [2]): 56.2 µM
GI50 (ACHN): 53.7 µM
Structure (SMILES): Cc1cc(-c2nc3ccc(O)cc3s2)ccc1N
GI50 (SF-268): 35.5 µM
GI50 (UACC-257): > 100 µM
GI50 (Malme-3M): 83.2 µM
GI50 (SNB-19): 45.7 µM
GI50 (Hs-578T): 95.5 µM
GI50 (EKVX): 4.07 µM
GI50 (HOP-92): > 100 µM
GI50 (SR): 21.9 µM
GI50 (A498): 41.7 µM
GI50 (HOP-62): 30.9 µM
GI50 (LOX IMVI): > 100 µM
GI50 (TK-10): 77.6 µM
IC50 (MCF7 [1]): < 0.001 µM
GI50 (NCI/ADR-RES): 91.2 µM
GI50 (UACC-62): 57.5 µM
GI50 (M14): 33.1 µM
GI50 (UO-31): 21.4 µM
GI50 (SNB-75): 15.8 µM
GI50 (RXF 393): 30.2 µM
GI50 (SF-295): 31.6 µM
GI50 (KM12): 57.5 µM
GI50 (SN12C): 38.9 µM

Structure (SMILES): CC(=O)Nc1ccc(-c2nc3cccc(O)c3s2)cc1C
IC50 (MCF7 [1]): 48.2 µM

Structure (SMILES): Cc1cc(-c2nc3cc(O)ccc3s2)ccc1N
IC50 (MCF7 [1]): 78.7 µM

Structure (SMILES): Nc1ccc(-c2nc3cc(O)ccc3s2)cc1Cl
IC50 (MCF7 [1]): 60.6 µM

Structure (SMILES): CC(=O)ON(C(C)=O)c1ccc(-c2nc3ccccc3s2)cc1
IC50 (MCF7 [1]): < 0.001 µM

Structure (SMILES): CC(=O)Nc1ccc(-c2nc3c(O)cccc3s2)cc1C
IC50 (MCF7 [1]): 33 µM

Structure (SMILES): Nc1ccc(-c2nc3c(O)cccc3s2)cc1Cl
IC50 (MCF7 [1]): 61.4 µM

Structure (SMILES): Nc1ccc(-c2nc3ccccc3s2)cc1CO
IC50 (MCF7 [1]): 0.006 µM

Structure (SMILES): CC(=O)Nc1ccc(-c2nc3ccccc3s2)cc1O
IC50 (MCF7 [1]): 9 µM

Structure (SMILES): Nc1ccc(-c2nc3ccccc3s2)cc1Cl
IC50 (MCF7 [1]): < 0.001 µM
